From US9132138B2, “Method for the treatment of multiple sclerosis” (CASI Pharmaceuticals, Inc., priority 2012, dated 2015)

Assays:
Th17 cells = assay: Intracellular cytokine staining of in vitro differentiated Th17 cells; type: cell-based, C57/BL6 mice
human PBL = assay: Proliferation of human PBMC/PBL activated with anti-CD3/28 (3H-thymidine); type: cell-based; conditions: anti-CD3/28 antibodies, 24 or 48 hours
Protocol: FIGS. 2A-2E, show proliferation and activation of T cells are inhibited by 2ME2. FIG. 2A, CD4^+ T cells were pre-treated with the indicated concentrations of 2ME2 and stimulated with plate-bound anti-CD3/28 or PMA/iono. Proliferation was assayed 24 hours (left) or 48 hours (right) later by 3H-thymidine incorporation. FIG. 2B, CD4^+ and CD8^+ T cells were stimulated with anti-CD3/28 in the presence of increasing concentrations of 2ME2. CD25 expression was assessed at 6 hours or 24 hours post-stimulation by flow cytometry. FIG. 2C, Quantification of CD25 expression in purified CD4^+ T cells pre-treated with increasing concentrations of 2ME2, and stimulated with anti CD3/28 or PMA/iono for 6 or 24 hours. […] Viability was determined 24 hours or 48 hours post-stimulation by flow cytometry. […] Proliferation was determined 24 hours or 48 hours later by 3H-thymidine incorporation. […]
(§1) Purified CD4^+ T cells were stimulated with plate-bound anti-CD3 (clone 2C11, BD, 10 ng/ml) plus anti-CD28 (clone 37.51, BD, 100 ng/ml). […] CD25 and CD69 expression was determined by flow cytometry (FACSCanto II, BD) and analyzed using FloJo software (Treestar Inc). Proliferation was assessed by 3H-thymidine incorporation. Viability and upregulation of cell surface markers on activated T cells were assessed by flow cytometry using Annexin V and propridium iodide. […]

[1] = tested on: LPS-induced TNFα production; assay: Serum TNFα in mice injected with LPS; type: in vivo; conditions: 2ME2-pretreated mice injected with LPS
ERβ = ERβ (Homo sapiens, UniProt Q92731); conditions: cited from earlier work
GPER1 = molecular target: T1, GPER1 (Mus musculus, UniProt Q8BMP4); assay: GPER1 dependence: CD25/CD69 on CD4+ T cells with G15 or G1; type: cell-based, C57/BL6 mice; conditions: at 6 hours
T1 construct: Purified C57/BL6 CD4^+ T cells were preincubated with the GPER1 antagonist G15; endogenous in cells; host or cells: purified primary CD4+ T cells from C57/BL6 mice
T1 sequence (Q8BMP4 1-375): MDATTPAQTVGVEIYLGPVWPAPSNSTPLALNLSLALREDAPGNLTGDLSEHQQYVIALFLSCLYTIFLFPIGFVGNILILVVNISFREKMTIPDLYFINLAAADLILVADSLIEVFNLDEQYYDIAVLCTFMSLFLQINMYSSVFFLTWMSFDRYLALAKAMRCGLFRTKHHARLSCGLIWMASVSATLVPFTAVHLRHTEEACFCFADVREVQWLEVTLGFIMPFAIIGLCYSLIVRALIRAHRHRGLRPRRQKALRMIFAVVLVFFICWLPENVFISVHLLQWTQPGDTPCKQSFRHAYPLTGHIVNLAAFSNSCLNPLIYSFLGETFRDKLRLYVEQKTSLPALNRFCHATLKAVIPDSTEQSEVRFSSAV
Protocol: FIGS. 6A and 6B show purified CD4^+ T cells that were pretreated with 2-50 μM 2ME2 and/or the GPER1 antagonist G15, and subsequently stimulated with anti-CD3/28 for 6 hours. Activation of CD4^+ T cells was assessed by CD25 and CD69 upregulation, measured by flow cytometry. US, unstimulated. Data is shown as mean±SD for triplicate determinations, and is representative of two separate experiments.
Purified C57/BL6 CD4^+ T cells were preincubated with the GPER1 antagonist G15 (100 nM, Tocris) and 2ME2 (0-50 μM), or the GPER1 agonist G1 (1-100 nM, Tocris) for 30 minutes, and activated with plate bound anti-CD3 plus soluble anti-CD28. 6 hours later, cells were harvested, stained with anti-CD4 and anti-CD25. CD25 expression was monitored on a HTS FACSCanto II (BD) and analyzed with FloJo (Treestar Inc).

ERα = molecular target: T2, ERα (Homo sapiens, UniProt P03372); conditions: cited from earlier work
T2 sequence (P03372 1-595): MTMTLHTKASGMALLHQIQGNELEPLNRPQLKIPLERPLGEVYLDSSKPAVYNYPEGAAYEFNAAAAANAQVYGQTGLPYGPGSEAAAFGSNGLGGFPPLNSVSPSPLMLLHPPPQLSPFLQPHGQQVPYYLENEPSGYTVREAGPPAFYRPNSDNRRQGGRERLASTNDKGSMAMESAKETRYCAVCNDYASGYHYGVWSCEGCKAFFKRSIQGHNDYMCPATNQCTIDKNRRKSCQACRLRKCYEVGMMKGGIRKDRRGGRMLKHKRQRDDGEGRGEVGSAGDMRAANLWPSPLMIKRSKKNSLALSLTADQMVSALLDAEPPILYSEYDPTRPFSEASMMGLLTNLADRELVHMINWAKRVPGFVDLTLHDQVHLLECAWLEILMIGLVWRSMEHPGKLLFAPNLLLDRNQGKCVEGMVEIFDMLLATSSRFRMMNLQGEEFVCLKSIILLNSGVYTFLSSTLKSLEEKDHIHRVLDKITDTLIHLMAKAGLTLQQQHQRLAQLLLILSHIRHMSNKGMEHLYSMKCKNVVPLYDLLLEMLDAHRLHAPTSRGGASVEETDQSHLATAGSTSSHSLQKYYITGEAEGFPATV

activated B cells = assay: B cell activation markers CD25 and CD69; type: cell-based, C57/BL6 mice
Protocol: (§2) Cells were pre-incubated with various concentrations of 2ME2 (Entremed) or vehicle (DMSO) for 30 minutes at 37° C.
Purified CD4^+ T cells were stimulated with plate-bound anti-CD3 (clone 2C11, BD, 10 ng/ml) plus anti-CD28 (clone 37.51, BD, 100 ng/ml). Purified B220+ B cells were stimulated with anti-IgM (Jackson, 5 μg/ml), anti-CD40 (clone 3/20, BD, 5 μg/ml) or LPS (Sigma, 20 μg/ml) for the times indicated in FIG. 3. CD25 and CD69 expression was determined by flow cytometry (FACSCanto II, BD) and analyzed using FloJo software (Treestar Inc). Proliferation was assessed by 3H-thymidine incorporation. Viability and upregulation of cell surface markers on activated T cells were assessed by flow cytometry using Annexin V and propridium iodide. Human Peripheral blood mononuclear cells (PBMC) were isolated using Mono-Poly Resolving Medium (MP Biomedical) according to the manufacturer's protocols and activated with anti-CD3 (clone UCHT1) and anti-CD28 (clone CD28.2).

T cells = assay: T cell viability by flow cytometry (Annexin V and propidium iodide); type: cell-based, C57/BL6 mice
Protocol: FIGS. 2A-2E, show proliferation and activation of T cells are inhibited by 2ME2. FIG. 2A, CD4^+ T cells were pre-treated with the indicated concentrations of 2ME2 and stimulated with plate-bound anti-CD3/28 or PMA/iono. Proliferation was assayed 24 hours (left) or 48 hours (right) later by 3H-thymidine incorporation. FIG. 2B, CD4^+ and CD8^+ T cells were stimulated with anti-CD3/28 in the presence of increasing concentrations of 2ME2. CD25 expression was assessed at 6 hours or 24 hours post-stimulation by flow cytometry. FIG. 2C, Quantification of CD25 expression in purified CD4^+ T cells pre-treated with increasing concentrations of 2ME2, and stimulated with anti CD3/28 or PMA/iono for 6 or 24 hours. FIG. 2D, T cells were pretreated with the indicated doses of 2ME2 and left untreated (left) or stimulated using plate-bound anti-CD3/28 (right). Viability was determined 24 hours or 48 hours post-stimulation by flow cytometry. FIG. 2E, human PBMC were activated with anti-human CD3/28 in the presence of increasing concentrations of 2ME2. Proliferation was determined 24 hours or 48 hours later by 3H-thymidine incorporation. Data are mean±SD of triplicate determinations and are representative of three separate donors. For FIG. 2A and FIG. 2E, data shown are the mean±SD of triplicate determinations, and are representative of 3 experiments. For FIG. 2B and FIG. 2C data is representative of two experiments.
as §2, §1

Chain of ERβ (Q92731 whole entry, species assumed): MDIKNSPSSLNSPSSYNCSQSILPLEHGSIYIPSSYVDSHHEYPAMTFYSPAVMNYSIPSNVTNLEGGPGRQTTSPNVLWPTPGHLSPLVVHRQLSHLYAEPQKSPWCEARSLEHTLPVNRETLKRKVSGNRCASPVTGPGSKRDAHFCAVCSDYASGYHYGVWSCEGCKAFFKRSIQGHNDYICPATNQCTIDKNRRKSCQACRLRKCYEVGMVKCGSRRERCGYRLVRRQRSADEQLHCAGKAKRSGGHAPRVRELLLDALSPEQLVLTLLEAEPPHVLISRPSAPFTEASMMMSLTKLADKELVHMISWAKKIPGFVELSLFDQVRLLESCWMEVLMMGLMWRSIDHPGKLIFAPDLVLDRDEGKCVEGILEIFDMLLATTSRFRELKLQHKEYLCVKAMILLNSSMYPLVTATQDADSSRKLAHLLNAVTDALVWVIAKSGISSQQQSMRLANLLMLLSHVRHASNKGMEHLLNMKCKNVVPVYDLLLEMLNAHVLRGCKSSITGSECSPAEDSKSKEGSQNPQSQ

## COc1cc2c(cc1O)CC[C@@H]1[C@@H]2CC[C@]2(C)[C@@H](O)CC[C@@H]12 [2ME2, 2-Methoxyestradiol]
Th17 cells; 50 μM 2ME2, PMA/iono 6 hours, vehicle 23.2%
  Th17 cells positive for IL-17: 7.3%
Th17 cells; PMA/iono 6 hours, vehicle 9.1%
  production of IFNγ in Th17 cells (positive cells): 7.3%
Human PBL
  proliferation of human PBL: inhibited in a dose-dependent manner
[1]
  serum TNFα levels: no reduction
ERβ
  lower affinity than estradiol for ERβ: 3200 fold
GPER1
  cell viability: Neither 2ME2, G1 nor G15 affected cell viability
ERα
  lower affinity than estradiol for ERα: 500 fold
Activated B cells
  up-regulation of CD25 in activated B cells: prevented
  up-regulation of CD69 in activated B cells: prevented
T cells; 24 hours
  apoptosis in activated T cells: none was apparent
  apoptosis in un-stimulated T cells: only a modest 2ME2-dependent increase in apoptosis
T cells; 48 hours post-stimulation
  viability of activated T cells: reduced viability
